Reference: patent US8609162B2, “Integrated neuromodulation system for mood enhancement of a living human subject” (priority 2012, dated 2013)

Assays:
[1] = system: normal, healthy volunteers; experiment: clinical trial of subjective mood enhancement after ingestion of the prepared beverage, eight test groups; type: in vivo, human; conditions: for duration of effect: following ingestion of the prepared beverage; for Score, subjective feeling of mood enhancement: scale of 0 (no change) to 10 (euphoric), N=10 per group, oral solution in 125 mL juice, 10 day period; for mood effect as described: subjective report in words
Method: A set of clinical trials were performed using the median dosing of a ‘typical formulation’ in randomly selected normal, healthy volunteers ranging from 14 to 80 years (mean age 44.5 years) greater than 50 kg body weight over a 10 day period. At the end of the clinical trial, subjects were asked to subjectively rate the feeling of mood enhancement, ranging from a scale of 0 (no change) to 10 (euphoric) and to rate the duration of effect (in hours) following ingestion of the prepared beverage. Members also were encouraged to report any side effects, if any.
Eight different test groups of ten human subjects each (N=10) were devised as follows:
Test Group 1: Oral solution containing 125 mL juice (7% carbohydrate), 3 times daily. This formulation represents placebo.
(§1) Test Group 2: L-Phenylalanine, 800 mg and mucina pruriens, 15% L-DOPA, 200 mg oral solution in 125 mL juice (containing 7% carbohydrate), 3 times daily. This nootropic formulation affects the following neurotransmitter systems: dopamine agonist, a stimulant. The type number ratio is 2:0:0:0:0 to produce a ΔN=+2. This agent fails the test for producing predictable mood enhancement because it is has an imbalanced type number ratio, resulting in a net stimulatory effect (ΔN=+2), and producing a predictable mood over stimulation.
as §1, with “3: Phenylethylamine hydrochloride, 400” for “2: L-Phenylalanine, 800 mg and mucina pruriens, 15% L-DOPA, 200”, “single dose.” for “3 times daily.”, “1:0:0:0:0” for “2:0:0:0:0”, “ΔN=+1.” for “ΔN=+2.”, “(ΔN=+1),” for “(ΔN=+2),”
(§2) Test Group 4: Dimethylaminoethanol bitartrate, 300 mg oral solution in 125 mL juice (containing 7% carbohydrate), 3 times daily. This nootropic formulation affects the following neurotransmitter systems: acetylcholine agonist, an inhibitor. The type number ratio is 0:1:0:0:0 to produce a ΔN=−1. This agent fails the test for producing predictable mood enhancement because it is has an imbalanced type number ratio, resulting in a net inhibitory effect (ΔN=−1), and producing a predictable mood suppression.
as §2, with “5: S-Adenosyl-methionine tosylate disulfate,” for “4: Dimethylaminoethanol bitartrate,”, “serotonin” for “acetylcholine”, “0:0:1:0:0” for “0:1:0:0:0”
as §1, with “6: Anhydrous caffeine, 80” for “2: L-Phenylalanine, 800 mg and mucina pruriens, 15% L-DOPA, 200”, “adenosine antagonist,” for “dopamine agonist,”, “0:0:0:0:1” for “2:0:0:0:0”, “ΔN=+1.” for “ΔN=+2.”, “(ΔN=+1),” for “(ΔN=+2),”
as §2, with “7: L-Theanine, 200” for “4: Dimethylaminoethanol bitartrate, 300”, “GABA” for “acetylcholine”, “0:0:0:1:0” for “0:1:0:0:0”, “suppression. […]” for “suppression.”

[2] = doses as low as; cited from earlier work

Row | Molecule | side effects reported ([1]; 10 subjects per group) | duration of effect [1] | Score, subjective feeling of mood enhancement [1] | mood effect as described ([1]; hydrochloride) | mood effect as described ([1]; listed as Phenylethyamine hydrochloride, hydrochloride) | side effects reported ([1]; human, in vivo) | mood effect as described [1] | mood effect as described ([1]; listed as S-adenosyl-methionine tosylate disulfate) | dose producing hallucinogenic and entheogenic effects [2] [µg]
1 | Cl.NCCc1ccccc1 [Test Group 3, Phenylethylamine hydrochloride] | flushing in 4 of 10 subjects | less than 30 minutes | 7.5 | temporary euphoric feeling | noticeable but short-term effect |  |  |  | 
2 | CCNC(=O)CC[C@H](N)C(=O)O [Test Group 7, L-Theanine] |  | 3 h | 6.5 |  |  | No side effects reported | very calm, sedative-like effect |  | 
3 | Dimethylaminoethanol bitartrate [Test Group 4] | headache in 1 of 10 subjects | less than 1 hours | 2.0 |  |  |  | mild effect |  | 
4 | Cn1c(=O)c2c(ncn2C)n(C)c1=O [Test Group 6, Anhydrous caffeine] | No side effects reported | 2 h | 3.0 |  |  |  | felt alert |  | 
5 | S-Adenosyl-methionine tosylate disulfate [Test Group 5] | No side effects reported | 3 h | 6.0 |  |  |  | better mood | moderate mood enhancement | 
6 | CCN(CC)C(=O)[C@@H]1C=C2c3cccc4[nH]cc(c34)C[C@H]2N(C)C1 [LSD] |  |  |  |  |  |  |  |  | 30 to 40
